Test results taken from patent US12509460B2 (Skyhawk Therapeutics, Inc., priority 2019, dated 2025).

Columns and labels:
[1] = Quantitative splicing assay (HTT), qPCR; assay type: cell-based, human; conditions: Homo sapiens, GM04724, 24 h, GM04724 lymphoblasts, qPCR, read-out: HTT Splicing: E49-50 EC50
Summary of the method: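 Patient lymphoblasts (50,000 cells/well) dosed immediately after plating for 24 h at 2.5 uM to 0.15 nM in 0.1% DMSO. Lysed, cDNA made directly from cells, and inclusion of the intron 49 cryptic exon quantified by TaqMan qPCR.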

[2] = system: MDR1-MDCK cell monolayers; test: Blood-brain-barrier (BBB) penetration potential via MDCK-MDR1 permeability assay; conditions: for MDCK-MDR1: % Recov A-B: A-B direction; for MDCK-MDR1: % Recov B-A: B-A direction
MDR1 = test: as above; conditions: dog, MDCK-MDR1, pH 7.4, MDCK-MDR1: Efflux, efflux ratio
MDR1 (P-gp) = test: as above; conditions: dog; for Papp A→B at 120 min, 5 μM: MDCK-MDR1, pH 7.4, MDCK-MDR1: Papp A-B, A-B direction; for Papp B→A at 120 min, 5 μM: MDCK-MDR1, pH 7.4, MDCK-MDR1: Papp B-A, B-A direction
[3] = system: SMN protein in spinal muscular atrophy (SMA) patient fibroblasts (GM03813, Coriell); test: SMN protein assay, Mesoscale Discovery (MSD); assay type: cell-based, human; conditions: SMA patient fibroblasts GM03813, 48 hours, MSD; for EC50: read-out: SMN2 protein EC50
Summary of the method: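 SMA patient fibroblasts (GM03813) seeded at 7000 cells/well and exposed to compound at 2.5 μM to 0.6 nM for 48 hours. Lysates assayed for SMN by MSD immunoassay, with absolute SMN amount calculated from a per-plate SMN standard curve (1 μg/ml to 19.5 pg/ml).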

[4] = system: SMN FL and SMN Δ7 in spinal muscular atrophy (SMA) patient fibroblasts (GM03813, Coriell); test: Quantitative splicing assay (SMN), qPCR; assay type: cell-based, human; conditions: Homo sapiens, Fibroblast, 24 h, SMA patient fibroblasts GM03813, 24 h, qPCR; read-out: SMN2 Splicing FL EC50
Protocol: Spinal muscular atrophy (SMA) patient fibroblasts (GM03813, Coriell) are plated in 96-well plates at 50,000 cells/well. […] Treated cells are lysed and cDNA synthesized using the Fast Advanced Cells-to-Ct kit (Thermofisher A35378) according to the manufacturer's instructions. 2 μL of each cDNA are used in qPCR reactions. […] Reactions are run in a Quant Studio 6 qPCR instrument with default settings.

[5] = system: mHTT protein in GM04724 (CAG 70/20) Huntington's disease patient lymphoblast cells; test: mHTT protein assay, 2B7-MW1 assay via Mesoscale Discovery (MSD); assay type: cell-based, human; conditions: GM04724 Huntington's disease patient lymphoblasts
Summary of the method: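 Patient lymphoblasts treated 48 h with compound from 10 μM to 0.6 nM. mHTT quantified by MSD 2B7-MW1 immunoassay, whose signal depends on polyQ expansion and HTT size. Viability measured on a replicate plate by CellTiter Glo.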

| SMILES | EC50 [1] [nM] | MDCK-MDR1: % Recov A-B [2] [%] | MDCK-MDR1: % Recov B-A [2] [%] | efflux ratio at 120 min, 5 μM (MDR1) | Papp A→B at 120 min, 5 μM (MDR1 (P-gp)) [×10⁻⁶ cm/s] | Papp B→A at 120 min, 5 μM (MDR1 (P-gp)) [×10⁻⁶ cm/s] | EC50 [3] [nM] | EC50 [4] [nM] | EC50 [5] [nM] | SMN2 protein EC50 [3] |
| --- | --- | --- | --- | --- | --- | --- | --- | --- | --- | --- |
| CN(c1ccc(-c2ccc(C3=CCCC3)cc2O)nn1)[C@H]1C[C@@H]2CC[C@@H](N2)[C@H]1F [Compound 34B, 5-(cyclopent-1-en-1-yl)-2-(6-(((1R,2R,3S,5S)-2-fluoro-8-azabicyclo[3.2.1]octan-3-yl)(methyl)amino)pyridazin-3-yl)phenol] | 51 to 100 | 12 | 48 | 3 | 1.02 | 2.81 | 16 to 50 | 16 to 50 | 51 to 100 | – |
| CN(c1ccc(-c2ccc(-c3cn[nH]c3)cc2O)nn1)[C@H]1C[C@@H]2CC[C@@H](N2)[C@H]1F (single isomer, unassigned) [Compound 42B] | 0.01 to 15 | 78 | 73 | 39 | 0.71 | 27.7 | 0.01 to 15 | 0.01 to 15 | 0.01 to 15 | – |
| Cc1cnc(-c2ccc(-c3ccc(N(C)[C@H]4C[C@@H]5CCC[C@@H](N5)[C@H]4F)nn3)c(O)c2)cn1 [Compound 26B, 2-(6-(((1R,2R,3S,5S)-2-fluoro-9-azabicyclo[3.3.1]nonan-3-yl)(methyl)amino)pyridazin-3-yl)-5-(5-methylpyrazin-2-yl)phenol] | 51 to 100 | 60 | 81 | 16 | 2.76 | 45.1 | 0.01 to 15 | 51 to 100 | 0.01 to 15 | – |
| Cc1cnc(-c2ccc(-c3ccc(N(C)[C@@H]4C[C@H]5CCC[C@H](N5)[C@@H]4F)nn3)c(O)c2)o1 [Compound 16A, 2-(6-(((1S,2S,3R,5R)-2-fluoro-9-azabicyclo[3.3.1]nonan-3-yl)(methyl)amino)pyridazin-3-yl)-5-(5-methyloxazol-2-yl)phenol] | 16 to 50 | 31 | 41 | 7 | 2.31 | 15.2 | 101 to 500 | 101 to 500 | 16 to 50 | – |
| CN(c1ccc(-c2cc3ccncc3cc2O)nn1)[C@@H]1C[C@H]2CC[C@H](N2)[C@@H]1F (single isomer, unassigned) [Compound 87A] | 51 to 100 | 59 | 79 | 8 | 5.33 | 43.1 | 0.01 to 15 | 101 to 500 | 51 to 100 | – |
| CN(c1ccc(-c2ccc(-n3nccn3)cc2O)nn1)[C@H]1C[C@@H]2CC[C@@H](N2)[C@H]1F [Compound 90B, 2-(6-(((1R,2R,3S,5S)-2-fluoro-8-azabicyclo[3.2.1]octan-3-yl)(methyl)amino)pyridazin-3-yl)-5-(2H-1,2,3-triazol-2-yl)phenol] | 0.01 to 15 | 43 | 67 | 2 | 6.56 | 16.1 | 16 to 50 | 0.01 to 15 | 0.01 to 15 | – |
| CN(c1ccc(-c2cc3c(=O)n(C)cnc3cc2O)nn1)[C@H]1C[C@@H]2CC[C@@H](N2)[C@H]1F [Compound 85B, 6-(6-(((1R,2R,3S,5S)-2-fluoro-8-azabicyclo[3.2.1]octan-3-yl)(methyl)amino)pyridazin-3-yl)-7-hydroxy-3-methylquinazolin-4(3H)-one] | 0.01 to 15 | 98 | 103 | 68 | 0.71 | 48.5 | 0.01 to 15 | 0.01 to 15 | 0.01 to 15 | – |
| Cn1cnc2cc(-c3ccc(N(C4CC4)[C@H]4C[C@@H]5CC[C@@H](N5)[C@H]4F)nn3)c(O)cc2c1=O [Compound 56B, 7-(6-(cyclopropyl((1R,2R,3S,5S)-2-fluoro-8-azabicyclo[3.2.1]octan-3-yl)amino)pyridazin-3-yl)-6-hydroxy-3-methylquinazolin-4(3H)-one] | 0.01 to 15 | 96 | 97 | 46 | 1.12 | 51.2 | – | 16 to 50 | 0.01 to 15 | E (501 ≤ E ≤ 10.000) |
| CN(c1ccc(-c2cc3c(=O)n(C)cnc3cc2O)nn1)[C@@H]1C[C@H]2CC[C@H](N2)[C@@H]1F [Compound 85A, 6-(6-(((1S,2S,3R,5R)-2-fluoro-8-azabicyclo[3.2.1]octan-3-yl)(methyl)amino)pyridazin-3-yl)-7-hydroxy-3-methylquinazolin-4(3H)-one] | 16 to 50 | 99 | 99 | 74 | 0.67 | 49.2 | 0.01 to 15 | 16 to 50 | 0.01 to 15 | – |
| CN(c1ccc(-c2cc(F)c(-n3ccnn3)cc2O)nn1)[C@@H]1C[C@H]2CC[C@H](N2)[C@@H]1F [Compound 52A, 4-fluoro-2-(6-(((1S,2S,3R,5R)-2-fluoro-8-azabicyclo[3.2.1]octan-3-yl)(methyl)amino)pyridazin-3-yl)-5-(1H-1,2,3-triazol-1-yl)phenol] | 101 to 500 | 86 | 92 | 8 | 6.63 | 49.7 | 16 to 50 | 51 to 100 | 16 to 50 | – |
| COc1cnc(-c2ccc(-c3ccc(N(C)[C@@H]4C[C@H]5CCC[C@H](N5)[C@@H]4F)nn3)c(O)c2)cn1 [Compound 29A, 2-(6-(((1S,2S,3R,5R)-2-fluoro-9-azabicyclo[3.3.1]nonan-3-yl)(methyl)amino)pyridazin-3-yl)-5-(5-methoxypyrazin-2-yl)phenol] | 16 to 50 | 26 | 60 | 7 | 1.85 | 12.6 | 0.01 to 15 | 501 to 10000 | 16 to 50 | – |
